Where “and” joins values, the source holds several entries; their conditions need not be identical. Equal entries are not always repeated.
Tested on: MX-1 breast xenograft, nude mice, tumor weight change
Test: NCI In Vivo Anticancer Drug Screen. Data for tumor model Human Mammary Carcinoma MX-1 Xenograft (subcutaneous) in NU/NU Swiss (nude) mice
Settings: endpoint: optimum tumor weight change, schedule: Q04DX003 (ip), higher = larger tumour
Experimental: The antitumor activity of compounds was measured in mice bearing transplantable tumors. Survival or tumor size were measured and the results are expressed as the measurement made in the treated group (T) divided by the measurement made in the vehicle treated control group (C). The tumor model used in this assay is Human Mammary Carcinoma MX-1 Xenograft (subcutaneous) in NU/NU Swiss (nude) mice

[1] = dose: 7.5 mg/kg/injection, vehicle: saline
[2] = dose: 30.0 mg/kg/injection, vehicle: saline
[3] = dose: 60.0 mg/kg/injection, vehicle: saline
[4] = dose: 12.5 mg/kg/injection, vehicle: saline with Tween-80
[5] = dose: 100.0 mg/kg/injection, vehicle: saline with Tween-80
[6] = dose: 50.0 mg/kg/injection, vehicle: Klucel (hydroxypropylcellulose) (HPC)
[7] = dose: 100.0 mg/kg/injection, vehicle: Klucel (hydroxypropylcellulose) (HPC)
[8] = dose: 400.0 mg/kg/injection, vehicle: Klucel (hydroxypropylcellulose) (HPC)
[9] = dose: 1.0 mg/kg/injection, vehicle: water
[10] = dose: 25.0 mg/kg/injection, vehicle: saline
[11] = dose: 50.0 mg/kg/injection, vehicle: saline with Tween-80
[12] = dose: 200.0 mg/kg/injection, vehicle: Klucel (hydroxypropylcellulose) (HPC)

For Cc1c(N)nc(C(CC(N)=O)NCC(N)C(N)=O)nc1C(=O)NC(C(=O)NC(C)C(O)C(C)C(=O)NC(C(=O)NCCc1nc(-c2nc(C(=O)NCCCNC(C)c3ccccc3)cs2)cs1)C(C)O)C(OC1OC(CO)C(O)C(O)C1OC1OC(CO)C(O)C(OC(N)=O)C1O)c1cnc[nH]1 (stereo not given), the T/C [1] was 43 % of control and 50 % of control, the T/C [2] was 18 % of control and 22 % of control and the T/C [3] was 17 % of control.
With C[n+]1c(-c2cccc3ccccc23)c2cc(N)ccc2c2ccccc21 the T/C (dose: 3.0 mg/kg/injection, vehicle: saline) was 76 % of control and 82 % of control and the T/C (dose: 6.0 mg/kg/injection, vehicle: saline) was 78 % of control.
In the case of COc1cccc2c1C(=O)c1c(O)c3c(c(O)c1C2=O)C[C@@](O)(C(C)=O)C[C@@H]3OC1CC(N)C(O)C(C)O1 (stereo not given in full), the T/C (dose: 1.0 mg/kg/injection, vehicle: saline) is reported as 72 % of control.
For Cc1cc(N(CC(C)Br)CC(C)Br)ccc1N=Nc1ccccc1C(=O)O (stereo not given), the T/C (dose: 3.13 mg/kg/injection, vehicle: saline with Tween-80) was 75 % of control, the T/C (dose: 6.25 mg/kg/injection, vehicle: saline with Tween-80) was 73 % of control and the T/C [4] was 61 % of control.
With CSc1cc(=O)n2c3ccccc3c3ccnc1c32 the T/C (dose: 10.0 mg/kg/injection, vehicle: saline with Tween-80) was 61 % of control, the T/C (dose: 20.0 mg/kg/injection, vehicle: saline with Tween-80) was 50 % of control and 67 % of control and the T/C (dose: 80.0 mg/kg/injection, vehicle: saline with Tween-80) was 27 % of control.
With O=C1N(Cl)C(=O)C(c2ccc(Cl)cc2)(c2ccc(Cl)cc2)N1Cl the T/C [5] was 98 % of control.
With CN(C)N=Nc1cccc(C(N)=O)c1 the T/C [6] was 102 % of control, the T/C [7] was 87 % of control and the T/C [8] was 81 % of control.
In the case of CCCC(=O)OCc1cc(=O)n(C)c2c3c4c(cc12)c(C)cc(=O)n4CO3, the T/C [6] is reported as 48 % of control and the T/C [7] is reported as 70 % of control.
For O=C(O)CP(=O)(O)O, the T/C (dose: 200.0 mg/kg/injection, vehicle: saline) was 87 % of control, the T/C (dose: 400.0 mg/kg/injection, vehicle: saline) was 69 % of control and the T/C (dose: 800.0 mg/kg/injection, vehicle: saline) was 48 % of control. The T/C (dose: 1600.0 mg/kg/injection, vehicle: saline) was 50 % of control.
With C=CC(=O)N1CN(C(=O)C=C)CN(C(=O)C=C)C1 the T/C [4] was 52 % of control.
In the case of COc1cccc2c1C(=O)c1c(O)c3c(c(O)c1C2=O)C[C@@](O)(C(=O)CO)C[C@@H]3OC1CC(N)CC(C)O1 (stereo not given in full), the T/C (dose: 0.13 mg/kg/injection, vehicle: water) is reported as 93 % of control, the T/C (dose: 0.25 mg/kg/injection, vehicle: water) is reported as 112 % of control and the T/C (dose: 0.5 mg/kg/injection, vehicle: water) is reported as 97 % of control. For the same molecule, the T/C (dose: 0.75 mg/kg/injection, vehicle: water) was 93 % of control, the T/C [9] was 65 % of control and the T/C (dose: 1.5 mg/kg/injection, vehicle: water) was 78 % of control. For the same molecule, the T/C (dose: 3.0 mg/kg/injection, vehicle: water) was 63 % of control.
For CC(C)CCCCCCCCCCCCC(=O)NCC(=O)NC1C(O)C(O)C(Nc2ncnc3nc[nH]c23)OC1C(O)CO (stereo not given), the T/C (dose: 3.0 mg/kg/injection, vehicle: suspension in saline) was 91 % of control, the T/C (dose: 6.0 mg/kg/injection, vehicle: suspension in saline) was 109 % of control and the T/C (dose: 12.0 mg/kg/injection, vehicle: suspension in saline) was 30 % of control.
In the case of CN(C)N=Nc1ccccc1, the T/C [6] is reported as 221 % of control.
COc1cccc2c1C(=O)c1c(O)c3c(c(O)c1C2=O)C[C@@](O)(/C(C)=N\O)C[C@@H]3OC1CC(N)C(O)C(C)O1 (stereo not given in full) was tested, and the T/C [10] was 66 % of control.
For O=S(CCCl)CCCl, the T/C (dose: 25.0 mg/kg/injection, vehicle: Klucel (hydroxypropylcellulose) (HPC)) was 75 % of control and the T/C [7] was 34 % of control.
In the case of O=Cc1ccc(O)c(O)c1, the T/C [11] is reported as 63 % of control and the T/C (dose: 400.0 mg/kg/injection, vehicle: saline with Tween-80) is reported as 89 % of control.
CN(C)N=Nc1cn[nH]c1C(N)=O was tested, and the T/C [6] was 100 % of control, the T/C [7] was 98 % of control and the T/C [12] was 71 % of control. The T/C [8] was 82 % of control.
In the case of CCN(CC)CCCC(C)Nc1c2ccc(Cl)cc2nc2ccc(OC)cc12 (stereo not given), the T/C [11] is reported as 95 % of control and the T/C [5] is reported as 88 % of control.
For CC(C)CCCCCCCCCCCCC(=O)NCC(=O)NC1C(C)OC(Nc2ncnc3nc[nH]c23)C(O)C1O (stereo not given), the T/C (dose: 3.13 mg/kg/injection, vehicle: distilled water + Tween-80) was 102 % of control.
Cc1cc(N(CCOS(C)(=O)=O)CCOS(C)(=O)=O)ccc1C=Nc1ccc(-c2nc(Cc3ccccc3)sc2C)cc1 was tested, and the T/C [6] was 46 % of control, the T/C [7] was -84 % of control and the T/C [12] was -73 % of control.
Cc1c(N)nc([C@H](CC(N)=O)NC[C@H](N)C(N)=O)nc1C(=O)N[C@H](C(=O)N[C@H](C)[C@@H](O)[C@H](C)C(=O)N[C@H](C(=O)NCCc1nc(-c2nc(C(=O)NCCC[S+](C)C)cs2)cs1)[C@@H](C)O)C(OC1OC(CO)C(O)C(O)C1OC1OC(CO)C(O)C(OC(N)=O)C1O)c1cnc[nH]1 (stereo not given in full) was tested, and the T/C (dose: 3.75 mg/kg/injection, vehicle: saline) was 52 % of control, the T/C (dose: 4.0 mg/kg/injection, vehicle: saline) was 55 % of control and the T/C [1] was 40 % of control and 41 % of control. For the same molecule, the T/C (dose: 8.0 mg/kg/injection, vehicle: saline) was 55 % of control and 67 % of control, the T/C (dose: 15.0 mg/kg/injection, vehicle: saline) was 31 % of control (2×) and 39 % of control and the T/C (dose: 16.0 mg/kg/injection, vehicle: saline) was 32 % of control and 39 % of control. For the same molecule, the T/C [2] was 17 % of control and 21 % of control and 25 % of control, the T/C (dose: 32.0 mg/kg/injection, vehicle: saline) was 15 % of control and 22 % of control and 27 % of control and the T/C [3] was 13 % of control and 21 % of control. The T/C (dose: 64.0 mg/kg/injection, vehicle: saline) was 16 % of control and 27 % of control.
COc1cc(NS(C)(=O)=O)ccc1Nc1c2ccccc2nc2ccccc12 was tested, and the T/C (dose: 8.0 mg/kg/injection, vehicle: saline + alcohol) was 74 % of control.
C[C@]12CC[C@@H]3c4ccc(OC(=O)Cc5ccc(N(CCCl)CCCl)cc5)cc4CC[C@H]3[C@@H]1CC[C@@H]2OC(=O)Cc1ccc(N(CCCl)CCCl)cc1 was tested, and the T/C (dose: 800.0 mg/kg/injection, vehicle: saline with Tween-80) was 50 % of control.
With C=C(C)[C@H]1Cc2c(ccc3c2O[C@@H]2COc4cc(OC)c(OC)cc4[C@@H]2C3=O)O1 the T/C (dose: 3.13 mg/kg/injection, vehicle: saline) was 66 % of control, the T/C (dose: 12.5 mg/kg/injection, vehicle: saline) was 86 % of control and the T/C [10] was 76 % of control.
COc1cccc2c1C(=O)c1c(O)c3c(c(O)c1C2=O)C[C@@](O)(C(=O)CO)C[C@@H]3OC1CC(N)C(O)C(C)O1 (stereo not given in full) was tested, and the T/C [9] was 97 % of control.

Source: PubChem BioAssay AID294 (DTP/NCI, 2004)
